Test results: US12151991B2, “Use of a substituted thiazolidine compound as nitrification inhibitor” (BASF SE, priority 2018, dated 2024)

Test system: nitrification
Test: Inhibition of nitrification in soil incubation test (ammonium and nitrate content after 14 days)
Settings: 100 g soil, 10 mg ammonium sulfate-N, 20° C., 0 and 14 days; for NI* @ 3%: compound at 3% (of nitrogen N); for NI* @ 0.3%: compound at 0.3% (of nitrogen N); for NI* @ 1%: compound at 1% (of nitrogen N)
Description: The compounds of the invention have been tested as follows in terms of the inhibition of nitrification:
100 g soil is filled into 500 ml plastic bottles (e.g. soil sampled from the field) and is moistened to 50% water holding capacity. The soil is incubated at 20° C. for two weeks to activate the microbial biomass. 1 ml test solution, containing the compound in the appropriate concentration (usually 0.3 or 1% of nitrogen N), or DMSO and 10 mg nitrogen in the form of ammonium sulfate-N is added to the soil and everything mixed well. Bottles are capped but loosely to allow air exchange. The bottles are then incubated at 20° C. for 0 and 14 days.
For analysis, 300 ml of a 1% K2SO4-solution is added to the bottle containing the soil and shaken for 2 hours in a horizontal shaker at 150 rpm. Then the whole solution is filtered through a filter (Macherey-Nagel Filter MN 807%). Ammonium and nitrate content is then analyzed in the filtrate in an autoanalyzer at 550 nm (Merck, AA11).
The inhibition (NI @ a specified concentration) is calculated as follows: […]

Row | SMILES | NI* @ 3% | NI* @ 0.3% | NI* @ 1%
1 | CC1(C)CSC(=S)N1 [Cmpd. 6, 4,4-Dimethyl-2-thiazolidinethione] | 57.5 |  | 
2 | COc1ccc(C(=O)N2CCSC2=S)cc1 [Cmpd. 7, 3-(4-Methoxybenzoyl)-2-thiazolidinethione] | 57.4 | 19.8 | 27.5
3 | O=C(c1cccc(Br)c1)N1CCSC1=S [Cmpd. 9, 3-(3-Bromobenzoyl)-2-thiazolidinethione] | 49 |  | 
4 | CC(=O)N1CCSC1=S [Cmpd. 4, 3-Acetylthiazolidine-2-thione] | 68.7 |  | 32.3
5 | O=C(c1ccc(Cl)cc1)N1CCSC1=S [Cmpd. 5, 3-(4-Chlorobenzoyl)-2-thiazolidinethione] | 67 |  | 30.7
6 | CN1CCSC1=S [Cmpd. 11, 3-Methyl-2-thiazolidinethione] | 39.9 |  | 
7 | O=C(Cc1ccccc1)N1CCSC1=S [Cmpd. 3, 3-(Phenylacetyl)-2-thiazolidinethione] | 71.1 | 26.6 | 55.3
8 | Cc1c(C(=O)N2CCSC2=S)oc2ccccc12 [Cmpd. 12, 3-[(3-Methyl-2-benzofuranyl)carbonyl]-2-thiazolidinethione] | 39 |  | 
9 | O=C(c1ccccc1)N1CCSC1=S [Cmpd. 10, 3-Benzoyl-2-thiazolidinethione] | 48.4 |  | 
10 | COc1ccc(C(=O)N2CCSC2=S)cc1OC [Cmpd. 8, 3-(3,4-Dimethoxybenzoyl)-2-thiazolidinethione] | 55 |  | 
11 | S=C1NCCS1 [Cmpd. 1, 1,3-Thiazolidine-2-thione] | 83.5 |  | 47
12 | COc1cccc(C(=O)N2CCSC2=S)c1 [Cmpd. 2, 3-(3-Methoxybenzoyl)-2-thiazolidinethione] | 67.9 | 34.8 | 73.1
